Source: patent US5153124A, “Hydroxyl-ML-236B derivatives, their preparation and use” (Sankyo Company Limited, priority 1985, dated 1992)

Tested on: cholesterol biosynthesis
Test: Inhibitory activity against cholesterol biosynthesis (method of J. Biol. Chem. 234, 2835 (1959))
Type: biochemical
Conditions: method of Journal of Biological Chemistry, 234, 2835 (1959)
Description: The inhibitory activities of certain of the compounds of the invention, in terms of the concentration in μg/ml required to inhibit cholesterol biosynthesis by 50% [measured by the method described in the Journal of Biological Chemistry, 234, 2835 (1959)], are as follows: […]

Point of comparison: `CC(O)[C@H](C)C(=O)O[C@H]1CCC=C2C=C[C@H](C)[C@H](CC[C@@H]3C[C@@H](O)CC(=O)O3)[C@H]21` (some centres unmarked) [3"-hydroxy-ML-236B lactone, 3"-Hydroxy-ML-236B lactone], “concentration required to inhibit cholesterol biosynthesis by 50%” value 0.039 µg/mL. Against it:
- CC(O)[C@H](C)C(=O)O[C@H]1C[C@H](O)C=C2C=C[C@H](C)[C@H](CC[C@@H](O)C[C@@H](O)CC(=O)O)[C@H]21 (single isomer, unassigned) [Sodium 3",6'β-dihydroxy-ML-236B carboxylate, Substance A] — 22-fold lower, 0.0018 µg/mL
- CC(O)[C@H](C)C(=O)O[C@H]1C[C@H](O)C=C2C=C[C@H](C)[C@H](CC[C@@H](O)C[C@@H](O)CC(=O)O)[C@H]21 (single isomer, unassigned) [Sodium 3",6'β-dihydroxy-ML-236B carboxylate, Substance B] — 1.6-fold lower, 0.024 µg/mL
- CC[C@H](C)C(=O)O[C@H]1CCC=C2C=C[C@H](C)[C@H](CC[C@@H]3C[C@@H](O)CC(=O)O3)[C@H]21 [ML-236B lactone, reference compound] — 3.9-fold lower, 0.010 µg/mL
- CC(O)[C@H](C)C(=O)O[C@H]1CCC=C2C=C[C@H](C)[C@H](CC[C@@H](O)C[C@@H](O)CC(=O)O)[C@H]21 (some centres unmarked) [Sodium 3"-hydroxy-ML-236B carboxylate] — 12-fold lower, 0.0032 µg/mL
